Experimental data: US9164053B2, “Electronic device for monitoring single molecule dynamics” (THE REGENTS OF THE UNIVERSITY OF CALIFORNIA, priority 2011, dated 2015)

Columns and labels:
[1] = biological target: T1, DNA polymerase 1 (Klenow Fragment, KF) (Escherichia coli, UniProt P00582, L790C); test: DNA polymerase I (Klenow fragment) single molecule device, nucleotide incorporation; assay type: biochemical, E. Coli; conditions: for turnover rate / τ hi / τ lo: homopolymer DNA substrate with complementary nucleotide; for average ΔI signal amplitude of incorporation, rank among four bases: FIG. 16C
T1 construct: a cysteine variant of the Klenow fragment of DNA polymerase 1 (KF); made in house
Protocol: The linker molecule is pyrene maleimide, with the pyrene functional group non-covalently attached to the SWNT sidewall. The single sensitizing molecule is a cysteine variant of the Klenow fragment of DNA polymerase 1 (KF) derived from E. Coli, which contains a single inserted cysteine at site 790 to provide a reactive thiol for bio-conjugation. The cysteine variant of KF was synthesized by methods known in the art. A 0.2 mg/mL solution of the cysteine variant of KF in activation buffer (10 mM Tris-HCl, 10 mM MgCl2, 50 mM NaCl, 1 mM DTT, pH 7.9) is prepared. Devices dilutely coated with the linker molecule pyrene maleimide non-covalently attached to the SWNT were soaked in the KF solution at room temperature for 60 minutes without agitation. Devices were then soaked in wash buffer (10 mM Tris-HCl, 10 mM MgCl2, 50 mM NaCl, 0.1 mM TCEP, 0.1% polysorbate 20, pH 7.9) for 30 minutes with shaking to remove unattached KF. Devices were finally rinsed under flowing activation buffer for 5 minutes and stored in this solution until used. These conditions lead to a density of approximately one KF molecule per micrometer of exposed SWNT.
In the preferred embodiment of Example 3, the sensitizing molecule is DNA polymerase 1 (Klenow Fragment, KF), and the chemical environment is a 100 nM solution of deoxyribonucleic acid (DNA) template and 100 μM deoxyribonucleotide triphosphate (dNTP) in buffer (50 mM NaCl, 10 mM MgCl2, 20 mM Tris, 10 mM dithiothreitol, pH 7.8). As before, high (Ihi) and low (Ilo) current values are observed during chemical activity and monitored in time. […] Transient pulses to a smaller current Ilo occur in the presence of chemical activity, which in this system requires the simultaneous presence of DNA template, dNTP to be incorporated, and Mg^2+ ions. Electrical transitions from Ihi to Ilo indicate the incorporation of one nucleotide into the template and can be statistically analyzed in the same ways as described for lysozyme.
FIGS. 15A-15D illustrate the signals produced by this embodiment when measured in buffer with different combinations of substrate and nucleotides. FIGS. 15A and 15B show the response of a KF sensitizing molecule measured with at least 10 nM polyC substrate and an excess of dGTP on 1 second and 0.1 second time scales, respectively. In the latter graph, the timing and amplitude of individual events are clearly resolved. Each event represents the addition of the nucleotide dGTP to the polyC substrate. FIGS. 15C and 15D show the same device measured with at least 10 nM polyA substrate and an excess of dTTP on identical time scales. On average, the individual events in FIG. 15D have shorter durations and higher amplitudes than the events in FIG. 15B. When either substrate or nucleotides are absent in these measurements, no transitions to Ilo are observed. Again, with reference to FIG. 15D, each event (dip in measured current) represents the addition of the nucleotide dTTP to the poly A substrate.
The device is capable of distinguishing all four types of base incorporation, and allows large numbers of individual events to be analyzed statistically. FIGS. 16A-16C illustrates typical types of analysis performed on data generated by a single KF protein in the presence of different combinations of DNA substrates and nucleotides. FIG. 16A plots the single-molecule probability distributions for the Ihi states of all four bases A, C, G, and T. Fits to each distribution are shown as solid lines and determine the mean value of τhi for each base pair. FIG. 16B plots the distributions for the four Ilo states and gives the values of τlo. The values of τhi are much longer than τlo and therefore they determine the overall turnover rate of the KF protein for a particular type of base. The data distinguish dGTP and dCTP as having shorter incorporation times and faster turnover rates than either dTTP or dATP. […]

[2] = single molecule sensing device, lysozyme processing peptidoglycan (current fluctuations); assay type: biochemical
Protocol: The linker molecule is pyrene maleimide, with the pyrene functional group non-covalently attached to the SWNT sidewall. The single sensitizing molecule is a cysteine variant of T4 lysozyme which contains a single substituted cysteine as the mutation S90C to provide a reactive thiol for bio-conjugation. The cysteine variant of T4 lysozyme was synthesized by methods known in the art. A 54 μM solution of the cysteine variant of T4 lysozyme in phosphate buffer (20 mM Na2HPO4, pH 7) is prepared. Devices dilutely coated with the linker molecule pyrene maleimide non-covalently attached to the SWNT were soaked in the lysozyme solution at room temperature for 60 minutes without agitation. Devices were then soaked in wash buffer (5 mM KCl, 10 mM Na2HPO4, 0.05% polysorbate 20, pH 7) for 30 minutes with shaking to remove unattached lysozyme. Devices were finally rinsed under flowing de-ionized water for 5 minutes. These conditions lead to a density of approximately one T4 lysozyme molecule per micrometer of exposed SWNT.
The fully fabricated device is used by submerging the device in a gaseous or liquid environment. Temperature of the environment should be controlled and held constant and, in the case of liquids, so should the pH and electrochemical potential. An electrical bias is created and held constant between the source and the drain electrode. The current between the source, and the drain is measured over time and collected as control data points. The device is then exposed to a different chemical environment, and the levels of the current between the source and the drain is measured over time collected as experimental data points.
In the embodiment of Example 2, the sensitizing molecule was lysozyme, and the chemical environment is 25 μg/ml peptidoglycan substrate in PBS buffer. The high (Ihi) and the low current values (Ilo) after the device is exposed to the peptidoglycan are measured over time. The parameters of the relative difference ΔI=(Ihi−Ilo)/Ilo are statistically analyzed, and have been determined to be the most reliable way to analyze the conformational changes in the sensitizing molecule. […] Ihi, on the other hand, is substantially larger and is assigned to the mechanically-closed conformation of lysozyme around a bound peptidoglycan molecule. Electrical transitions from Ilo to Ihi indicate the hinge-like closure of lysozyme as it attempts to catalytically cleave a glycosidic bond of the peptidoglycan.
In the more preferred embodiment, oscillations in the electrical current between Ilo and Ihi occur with a broad distribution of stochastic durations that mirror the enzyme's activity. Sequences of ten or more oscillations can be categorized into one of two activity types, one slow and one fast. The slow oscillation corresponds to productive enzyme activity where the enzyme is successfully cleaving bonds of the peptidoglycan. […] The amplitude of the signal ΔI is nearly the same in both slow and fast oscillations and is measured to be nearly constant, which supports a conclusion that the same range of molecular motion is being measured for both types of activity. This concurs with data from FRET which has previously proven that the range of mechanical motion in lysozyme is the same for both types of activity.
FIG. 2A illustrates an extended sequence of current fluctuation over 30 seconds, with the mean value highlighted using the setup of Example 2. […] The fast oscillations occur on average 300 times per second. The slow oscillations occur on average 15 times per second. The exact rate of either oscillation varies from one conformation to another, so that long-duration measurements observe the conversion of the enzyme to different possible rates. In different minutes of measurement, the same protein can undergo slow oscillations varying from 10 to 80 times per second.
FIG. 4 summarizes the data with mean values of τlo and τhi. Another figure of merit for each parameter is the statistical variance. […]

lysozyme = biological target: T2, lysozyme (Enterobacteria phage T4, UniProt P00720, C54T/C97A/S90C); assay type: biochemical
T2 construct: made in house
Protocol: The single sensitizing molecule is a cysteine variant of T4 lysozyme which contains a single substituted cysteine as the mutation S90C to provide a reactive thiol for bio-conjugation. […] A 54 μM solution of the cysteine variant of T4 lysozyme in phosphate buffer (20 mM Na2HPO4, pH 7) is prepared. Devices dilutely coated with the linker molecule pyrene maleimide non-covalently attached to the SWNT were soaked in the lysozyme solution at room temperature for 60 minutes without agitation. Devices were then soaked in wash buffer (5 mM KCl, 10 mM Na2HPO4, 0.05% polysorbate 20, pH 7) for 30 minutes with shaking to remove unattached lysozyme. Devices were finally rinsed under flowing de-ionized water for 5 minutes.

T1 sequence (P00582 324-928 L790C): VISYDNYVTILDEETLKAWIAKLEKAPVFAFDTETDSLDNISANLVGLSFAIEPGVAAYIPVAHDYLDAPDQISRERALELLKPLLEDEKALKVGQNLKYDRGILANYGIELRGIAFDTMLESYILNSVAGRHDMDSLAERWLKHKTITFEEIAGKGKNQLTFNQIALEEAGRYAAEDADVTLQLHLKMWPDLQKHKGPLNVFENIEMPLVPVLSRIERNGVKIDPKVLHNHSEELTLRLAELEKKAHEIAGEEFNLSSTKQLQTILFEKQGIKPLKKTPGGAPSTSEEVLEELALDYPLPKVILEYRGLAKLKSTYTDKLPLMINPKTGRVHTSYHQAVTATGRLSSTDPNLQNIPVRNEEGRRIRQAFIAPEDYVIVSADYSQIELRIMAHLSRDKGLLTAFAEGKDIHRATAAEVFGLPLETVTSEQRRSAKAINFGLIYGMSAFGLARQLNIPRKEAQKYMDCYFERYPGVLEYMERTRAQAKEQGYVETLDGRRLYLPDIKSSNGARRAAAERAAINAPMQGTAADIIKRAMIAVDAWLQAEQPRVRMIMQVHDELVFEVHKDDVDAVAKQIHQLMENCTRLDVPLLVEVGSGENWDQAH

Compound: Cc1cn([C@H]2C[C@H](O)[C@@H](COP(=O)(O)OP(=O)(O)OP(=O)(O)O)O2)c(=O)[nH]c1=O [dTTP]
- turnover rate [1]: 16.0 ± 2.9 s⁻¹
- τ hi [1]: 63.7 ± 11.4 ms
- τ lo [1]: 0.42 ± 0.09 ms

Compound: lysozyme
- normalized variance rhi ([2]; Nonproductive (fast), pH 5): 0.48 ± 0.10
- normalized variance rlo ([2]; Nonproductive (fast), pH 5): 0.97 ± 0.13
- normalized variance rhi ([2]; Nonproductive (fast), pH 7): 0.43 ± 0.06
- normalized variance rlo ([2]; Nonproductive (fast), pH 7): 0.99 ± 0.09
- normalized variance rhi ([2]; Nonproductive (fast), pH 11): 0.61 ± 0.08
- normalized variance rlo ([2]; Nonproductive (fast), pH 11): 1.00 ± 0.10
- normalized variance rhi ([2]; Processing (slow), pH 5): 0.68 ± 0.15
- normalized variance rlo ([2]; Processing (slow), pH 5): 1.00 ± 0.18
- normalized variance rhi ([2]; Processing (slow), pH 7): 0.74 ± 0.12
- normalized variance rlo ([2]; Processing (slow), pH 7): 1.06 ± 0.15
- normalized variance rhi ([2]; Processing (slow), pH 11): 0.60 ± 0.15
- normalized variance rlo ([2]; Processing (slow), pH 11): 1.11 ± 0.23
- slow oscillations, average rate ([2]; catalytic processing, 25 μg/ml peptidoglycan in PBS): 15 times per second
- time spent processing ([2]; linear peptidoglycan substrate without crosslinks): 88%
- fast oscillations, average rate ([2]; nonproductive binding, 25 μg/ml peptidoglycan in PBS): 300 times per second
- time spent processing ([2]; peptidoglycan substrate containing crosslinks): 51%

Compound: O=C(O)CCc1c[nH]c2ccccc12 [I3P, indole-3-propionic acid]
- pulse amplitude ΔI (lysozyme; 10 mM I3P): +20%
- pulse duration τhi (lysozyme; 10 mM I3P): < 1 ms
- interactions with inhibitor in electronic I(t) signals (lysozyme; weakly-interacting, non-covalent inhibitors): clearly observed

Compound: Nc1ncnc2c1ncn2[C@H]1C[C@H](O)[C@@H](COP(=O)(O)OP(=O)(O)OP(=O)(O)O)O1 [dATP]
- average ΔI signal amplitude of incorporation, rank among four bases [1]: largest
- turnover rate [1]: 14.4 ± 2.9 s⁻¹
- τ hi [1]: 71.4 ± 14.3 ms
- τ lo [1]: 0.33 ± 0.08 ms

Compound: Nc1nc2c(ncn2[C@H]2C[C@H](O)[C@@H](COP(=O)(O)OP(=O)(O)OP(=O)(O)O)O2)c(=O)[nH]1 [dGTP]
- average ΔI signal amplitude of incorporation, rank among four bases [1]: smallest
- turnover rate [1]: 28.5 ± 3.5 s⁻¹
- τ hi [1]: 38.0 ± 5.8 ms
- τ lo [1]: 0.33 ± 0.06 ms

Compound: Nc1ccn([C@H]2C[C@H](O)[C@@H](COP(=O)(O)OP(=O)(O)OP(=O)(O)O)O2)c(=O)n1 [dCTP]
- turnover rate [1]: 26.2 ± 4.4 s⁻¹
- τ hi [1]: 39.0 ± 5.6 ms
- τ lo [1]: 0.32 ± 0.07 ms
